Consider 16 compounds from patent US20250129069A1, “TRIAZOLO WRN INHIBITORS” (Nimbus Wadjet, Inc., priority 2023, published 2025).

Structures are written as SMILES.

In assay [1] the test system is p21 induction in HCT 116 cells. The assay can be described thus: p21 induction in cells (In-Cell Western, p21/GAPDH ratio). The class given is cell-based. The note with it: Homo sapiens, 24 h compound incubation, read-out: p21_EC50. Summed up: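 EC50 values come from nonlinear fits of percent activation, defined by the 800/700 nm p21-to-GAPDH ratio scaled between DMSO (low) and internal WRN inhibitor (high) controls. In-Cell Western read after 24 h compound exposure of HCT 116 cells at 37° C. Duplicate 11-point series, 2-fold steps, usually starting at 10 μM.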

Assay [2] has as its target human Werner helicase (WRN, amino acids 517-1235 with L1074F point mutation) (Homo sapiens (Human), UniProt Q14191, L1074F). The assay can be described thus: WRN (BV08) ADP-Glo assay. The class given is biochemical. Conditions: human WRN (aa 517-1235, L1074F), read-out: ADP-Glo_hWRN_IC50. The gist of the method: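 ADP-Glo luminescence read after 60 min, 25 °C reaction of 0.15 nM WRN (517-1235, L1074F, Sf9-expressed, tag removed) with 0.1 nM DNA duplex and 5 μM ATP, following 15 min compound preincubation; 20 mM Bicine pH 7.5, 1% DMSO. IC50 from 3- or 4-parameter fit of % inhibition.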
For orientation: ADP-Glo turns the ADP formed in a reaction into a luminescent signal.

Chain of human Werner helicase (WRN, amino acids 517-1235 with L1074F point mutation) (Q14191 other isoform, or with tags, fused parts or gaps L1074F (already in the parent)): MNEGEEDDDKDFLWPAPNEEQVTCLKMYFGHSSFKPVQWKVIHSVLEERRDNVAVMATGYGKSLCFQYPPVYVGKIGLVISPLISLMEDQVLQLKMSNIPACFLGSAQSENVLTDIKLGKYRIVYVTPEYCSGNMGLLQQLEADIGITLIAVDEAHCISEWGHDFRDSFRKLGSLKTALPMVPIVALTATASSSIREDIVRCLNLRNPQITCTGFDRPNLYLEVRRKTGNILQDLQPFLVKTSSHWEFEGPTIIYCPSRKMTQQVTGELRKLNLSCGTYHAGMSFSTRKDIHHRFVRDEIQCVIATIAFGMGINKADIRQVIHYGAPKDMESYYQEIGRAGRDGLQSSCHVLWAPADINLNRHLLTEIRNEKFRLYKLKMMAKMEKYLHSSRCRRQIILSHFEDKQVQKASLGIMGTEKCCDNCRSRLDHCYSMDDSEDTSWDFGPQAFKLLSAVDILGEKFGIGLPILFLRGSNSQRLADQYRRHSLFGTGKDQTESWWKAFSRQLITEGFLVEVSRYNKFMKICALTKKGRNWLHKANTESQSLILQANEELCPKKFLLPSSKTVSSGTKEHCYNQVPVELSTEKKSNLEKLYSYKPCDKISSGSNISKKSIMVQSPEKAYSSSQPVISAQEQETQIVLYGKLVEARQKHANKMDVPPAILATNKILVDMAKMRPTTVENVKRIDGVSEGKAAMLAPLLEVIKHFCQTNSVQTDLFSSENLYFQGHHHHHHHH

Take `CCc1c(N2CCN(C(=O)c3ncnc(C)c3O)CC2)c(=O)c2nn(-c3ccnc(OC)c3)nc2n1CC(=O)NC12CC(C3CCC3)(C1)C2` [Compound I-140, N-{3-cyclobutylbicyclo[1.1.1]pentan-1-yl}-2-{5-ethyl-6-[4-(5-hydroxy-6-methylpyrimidine-4-carbonyl)piperazin-1-yl]-2-(2-methoxypyridin-4-yl)-7-oxo-2H,4H,7H-[1,2,3]triazolo[4,5-b]pyridin-4-yl}acetamide]: in assay [1], the EC50 is at most 500 nM. In addition, in assay [2], the IC50 fell in the range of 5 to 50 nM.

As to `CCc1c(N2CCN(C(=O)c3ncnc(C)c3O)CC2)c(=O)c2nn(-c3ccncc3)nc2n1CC(=O)NC12CC(C3CCC3)(C1)C2` [Compound I-141, N-{3-cyclobutylbicyclo[1.1.1]pentan-1-yl}-2-{5-ethyl-6-[4-(5-hydroxy-6-methylpyrimidine-4-carbonyl)piperazin-1-yl]-7-oxo-2-(pyridin-4-yl)-2H,4H,7H-[1,2,3]triazolo[4,5-b]pyridin-4-yl}acetamide], the EC50 in assay [1] lay in the range of 500 to 2000 nM. The IC50 in assay [2] was in the range of 5 to 50 nM.

`CCc1c(N2CCN(C(=O)c3c(O)ccc4ncoc34)CC2)c(=O)c2nn(-c3ccnc(OC)c3)nc2n1CC(=O)NC12CC(CC)(C1)C2` [Compound I-142, 2-{5-ethyl-6-[4-(6-hydroxy-1,3-benzoxazole-7-carbonyl)piperazin-1-yl]-2-(2-methoxypyridin-4-yl)-7-oxo-2H,4H,7H-[1,2,3]triazolo[4,5-b]pyridin-4-yl}-N-{3-ethylbicyclo[1.1.1]pentan-1-yl}acetamide]: in assay [1], the EC50 was at most 500 nM. The IC50 in assay [2] lay within 5 to 50 nM.

For `CCc1c(N2CCN(C(=O)c3c(O)ccnc3OC)CC2)c(=O)c2nn(-c3ccnc(OC)c3)nc2n1CC(=O)NC12CC(C(F)(F)F)(C1)C2` [Compound I-143, 2-{5-ethyl-6-[4-(4-hydroxy-2-methoxypyridine-3-carbonyl)piperazin-1-yl]-2-(2-methoxypyridin-4-yl)-7-oxo-2H,4H,7H-[1,2,3]triazolo[4,5-b]pyridin-4-yl}-N-[3-(trifluoromethyl)bicyclo[1.1.1]pentan-1-yl]acetamide], the EC50 in assay [1] was 500 to 2000 nM. Also, the IC50 in assay [2] lay within 5 to 50 nM.

On to `CCc1c(N2CCN(C(=O)c3ncnc(C)c3O)CC2)c(=O)c2nn(C3=CCOCC3)nc2n1CC(=O)Nc1ccc(C(F)(F)F)cc1Cl` [Compound I-144, N-[2-chloro-4-(trifluoromethyl)phenyl]-2-[2-(3,6-dihydro-2H-pyran-4-yl)-5-ethyl-6-[4-(5-hydroxy-6-methylpyrimidine-4-carbonyl)piperazin-1-yl]-7-oxo-2H,4H,7H-[1,2,3]triazolo[4,5-b]pyridin-4-yl]acetamide], for which the EC50 in assay [1] is at most 500 nM. Also, in assay [2], the IC50 is 5 to 50 nM.

As to `CCc1c(N2CCN(C(=O)c3ncnc(C)c3O)CC2)c(=O)c2nn(-c3ccncc3)nc2n1CC(=O)Nc1ccc(C(F)(F)F)cc1Cl` [Compound I-147, N-[2-chloro-4-(trifluoromethyl)phenyl]-2-{5-ethyl-6-[4-(5-hydroxy-6-methylpyrimidine-4-carbonyl)piperazin-1-yl]-7-oxo-2-(pyridin-4-yl)-2H,4H,7H-[1,2,3]triazolo[4,5-b]pyridin-4-yl}acetamide], the EC50 in assay [1] is at most 500 nM. Besides, in assay [2], the IC50 is at most 5 nM.

For the compound `CCc1c(N2CCN(C(=O)c3c(O)ccc4ncoc34)[C@H]3CC[C@@H]32)c(=O)c2nn(-c3ccnc(OC)c3)nc2n1CC(=O)NC12CC(C(F)(F)F)(C1)C2` [Compound I-148, 2-{5-ethyl-6-[(1S,6S)-5-(6-hydroxy-1,3-benzoxazole-7-carbonyl)-2,5-diazabicyclo[4.2.0]octan-2-yl]-2-(2-methoxypyridin-4-yl)-7-oxo-2H,4H,7H-[1,2,3]triazolo[4,5-b]pyridin-4-yl}-N-[3-(trifluoromethyl)bicyclo[1.1.1]pentan-1-yl]acetamide], the EC50 in assay [1] is at most 500 nM. Also, the IC50 in assay [2] is 5 to 50 nM.

`CCc1c(N2CCN(C(=O)c3ncnc(C)c3O)CC2)c(=O)c2nn(-c3ccnc(OC)c3)nc2n1CC(=O)Nc1ccc(C(F)(F)F)cc1Cl` [Compound I-149, N-[2-chloro-4-(trifluoromethyl)phenyl]-2-{5-ethyl-6-[4-(5-hydroxy-6-methylpyrimidine-4-carbonyl)piperazin-1-yl]-2-(2-methoxypyridin-4-yl)-7-oxo-2H,4H,7H-[1,2,3]triazolo[4,5-b]pyridin-4-yl}acetamide]: the EC50 in assay [1] was at most 500 nM. Besides, the IC50 in assay [2] was at most 5 nM.

Take `CCc1c(N2CCN(C(=O)c3c(O)ccc4ncoc34)CC2)c(=O)c2nn(-c3ccnc(OC)c3)nc2n1CC(=O)NC12CC(C(F)(F)F)(C1)C2` [Compound I-150, 2-{5-ethyl-6-[4-(6-hydroxy-1,3-benzoxazole-7-carbonyl)piperazin-1-yl]-2-(2-methoxypyridin-4-yl)-7-oxo-2H,4H,7H-[1,2,3]triazolo[4,5-b]pyridin-4-yl}-N-[3-(trifluoromethyl)bicyclo[1.1.1]pentan-1-yl]acetamide]: the EC50 in assay [1] was at most 500 nM. Further, in assay [2], the IC50 was in the range of 5 to 50 nM.

As for `CCc1c(N2CCN(C(=O)c3ncnc(C)c3O)CC2)c(=O)c2nn(-c3ccnc(OC)c3)nc2n1CC(=O)NC12CC(C(F)(F)F)(C1)C2` [Compound I-151, 2-{5-ethyl-6-[4-(5-hydroxy-6-methylpyrimidine-4-carbonyl)piperazin-1-yl]-2-(2-methoxypyridin-4-yl)-7-oxo-2H,4H,7H-[1,2,3]triazolo[4,5-b]pyridin-4-yl}-N-[3-(trifluoromethyl)bicyclo[1.1.1]pentan-1-yl]acetamide], the EC50 in assay [1] lay in the range of 500 to 2000 nM. In assay [2], the IC50 is 5 to 50 nM.

As for `CCc1c(N2CCN(C(=O)c3ncc4c(c3O)CCO4)CC2)c(=O)c2nn(-c3ccnc(OC)c3)nc2n1CC(=O)Nc1ccc(C(F)(F)F)cc1Cl` [Compound I-152, N-[2-chloro-4-(trifluoromethyl)phenyl]-2-[5-ethyl-6-(4-{4-hydroxy-2H,3H-furo[2,3-c]pyridine-5-carbonyl}piperazin-1-yl)-2-(2-methoxypyridin-4-yl)-7-oxo-2H,4H,7H-[1,2,3]triazolo[4,5-b]pyridin-4-yl]acetamide], the EC50 in assay [1] was at most 500 nM. Further, the IC50 in assay [2] is at most 5 nM.

Take `CCc1c(N2CCN(C(=O)c3ncnc(C)c3O)[C@H]3CC[C@@H]32)c(=O)c2nn(C3CC3)nc2n1CC(=O)Nc1ccc(C(F)(F)F)cc1Cl` [Compound I-153, N-[2-chloro-4-(trifluoromethyl)phenyl]-2-{2-cyclopropyl-5-ethyl-6-[(1S,6S)-5-(5-hydroxy-6-methylpyrimidine-4-carbonyl)-2,5-diazabicyclo[4.2.0]octan-2-yl]-7-oxo-2H,4H,7H-[1,2,3]triazolo[4,5-b]pyridin-4-yl}acetamide]: the EC50 in assay [1] is at most 500 nM. The IC50 in assay [2] is at most 5 nM.

On to `CCc1c(N2CCN(C(=O)c3ncnc(C)c3O)[C@H]3CC[C@@H]32)c(=O)c2nn(C3=CCOCC3)nc2n1CC(=O)Nc1ccc(C(F)F)cc1F` [Compound I-154, N-[4-(difluoromethyl)-2-fluorophenyl]-2-[2-(3,6-dihydro-2H-pyran-4-yl)-5-ethyl-6-[(1S,6S)-5-(5-hydroxy-6-methylpyrimidine-4-carbonyl)-2,5-diazabicyclo[4.2.0]octan-2-yl]-7-oxo-2H,4H,7H-[1,2,3]triazolo[4,5-b]pyridin-4-yl]acetamide], for which, in assay [1], the EC50 is at most 500 nM. The IC50 in assay [2] fell in the range of 5 to 50 nM.

As for `CCc1c(N2CCN(C(=O)c3ncnc(C)c3O)[C@H]3CC[C@@H]32)c(=O)c2nn(-c3ccc(OC)cc3)nc2n1CC(=O)NC12CC(C(C)C)(C1)C2` [Compound I-155, 2-{5-ethyl-6-[(1S,6S)-5-(5-hydroxy-6-methylpyrimidine-4-carbonyl)-2,5-diazabicyclo[4.2.0]octan-2-yl]-2-(4-methoxyphenyl)-7-oxo-2H,4H,7H-[1,2,3]triazolo[4,5-b]pyridin-4-yl}-N-[3-(propan-2-yl)bicyclo[1.1.1]pentan-1-yl]acetamide], the EC50 in assay [1] is at most 500 nM. For the same compound, the IC50 in assay [2] was at most 5 nM.

For the compound `CCc1c(N2CCN(C(=O)c3ncnc(C)c3O)[C@H]3CC[C@@H]32)c(=O)c2nn(-c3ccc(OC)nc3)nc2n1CC(=O)NC12CC(C(C)C)(C1)C2` [Compound I-156, 2-{5-ethyl-6-[(1S,6S)-5-(5-hydroxy-6-methylpyrimidine-4-carbonyl)-2,5-diazabicyclo[4.2.0]octan-2-yl]-2-(6-methoxypyridin-3-yl)-7-oxo-2H,4H,7H-[1,2,3]triazolo[4,5-b]pyridin-4-yl}-N-[3-(propan-2-yl)bicyclo[1.1.1]pentan-1-yl]acetamide], in assay [1], the EC50 is at most 500 nM. The IC50 in assay [2] fell in the range of 5 to 50 nM.

Turning to `CCc1c(N2CCN(C(=O)c3cc4cc[nH]c4nc3OC)[C@H]3CC[C@@H]32)c(=O)c2nn(C3=CCOCC3)nc2n1CC(=O)NC12CC(C(C)C)(C1)C2` [Compound I-157, 2-[2-(3,6-dihydro-2H-pyran-4-yl)-5-ethyl-6-[(1S,6S)-5-{6-methoxy-1H-pyrrolo[2,3-b]pyridine-5-carbonyl}-2,5-diazabicyclo[4.2.0]octan-2-yl]-7-oxo-2H,4H,7H-[1,2,3]triazolo[4,5-b]pyridin-4-yl]-N-[3-(propan-2-yl)bicyclo[1.1.1]pentan-1-yl]acetamide], in assay [1], the EC50 is at most 500 nM. Moreover, the IC50 in assay [2] fell in the range of 5 to 50 nM.
